Measured values taken from PubChem BioAssay (NCI).
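Each compound was tested at five concentrations against cells in 96-well plates for 48 hours. Here, GI50 denotes the concentration required for 50% inhibition of growth. Definition used: TGI = concentration required for complete inhibition of growth.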

What was measured:
Assay in all cases: growth of human tumour cells (NCI), 48 h
[1] = system: HS 578T breast
[2] = system: HL-60(TB) leukemia
[3] = system: HOP-62 NSCLC
[4] = system: M14 melanoma
[5] = system: NCI-H226 lung
[6] = system: UO-31 renal
[7] = system: BT-549 breast
[8] = system: OVCAR-4 ovarian
[9] = system: HOP-92 NSCLC
[10] = system: OVCAR-3 ovarian
[11] = system: PC-3 prostate
[12] = system: MDA-MB-231 breast
[13] = system: NCI-H23 lung
[14] = system: HCT-15 colon
[15] = system: ACHN renal
[16] = system: HT29 colon
[17] = system: RPMI-8226 leukemia
[18] = system: HCT-116 colon
[19] = system: HCC-2998 colon
[20] = system: NCI-H522 lung
[21] = system: MALME-3M melanoma
[22] = system: SNB-75 CNS
[23] = system: SF-295 CNS
[24] = system: A549 NSCLC
[25] = system: MCF7 breast
[26] = system: SK-MEL-5 melanoma
[27] = system: SN12C renal
[28] = system: SF-268 CNS
[29] = system: A498 renal
[30] = system: DU-145 prostate
[31] = system: LOX IMVI melanoma
[32] = system: COLO 205 colon
[33] = system: SR leukemia
[34] = system: CCRF-CEM leukemia
[35] = system: IGROV1 ovarian
[36] = system: MOLT-4 leukemia
[37] = system: SK-OV-3 ovarian
[38] = system: UACC-62 melanoma
[39] = system: TK-10 renal
[40] = system: SK-MEL-2 melanoma
[41] = system: NCI/ADR-RES ovarian
[42] = system: T-47D breast
[43] = system: 786-0 renal
[44] = system: OVCAR-5 ovarian
[45] = system: OVCAR-8 ovarian
[46] = system: KM12 colon
[47] = system: SK-MEL-28 melanoma
[48] = system: RXF 393 renal
[49] = system: SF-539 CNS
[50] = system: NCI-H460 lung
[51] = system: UACC-257 melanoma
[52] = system: MDA-MB-435
[53] = system: SNB-19 CNS
[54] = system: EKVX NSCLC
[55] = system: U251 CNS
[56] = system: SW-620 colon
[57] = system: K-562 leukemia
[58] = system: CAKI-1 renal

Work on CN(C)c1ccc(-c2c(NC(C)(C)C)nc3c(OCCc4ccccc4)cccn23)cc1 yielded a GI50 [1] of 2.62 µM, a TGI [1] of 9.02 µM and a GI50 [2] of 3.13 µM. It also gave a TGI [2] of 8.38 µM, a GI50 [3] of 3.4 µM and a TGI [3] of 16.9 µM. The GI50 [4] was 3.48 µM, the TGI [4] was 75.6 µM and the GI50 [5] was 2.72 µM. For the same compound, the TGI [5] was 8.86 µM, the GI50 [6] was 2.01 µM and the TGI [6] was 7.22 µM. The GI50 [7] was 2.98 µM, the TGI [7] was 8.45 µM and the GI50 [8] was 3.06 µM. For the same compound, the TGI [8] was 12.8 µM, the GI50 [9] was 2.09 µM and the TGI [9] was 6.15 µM. It also gave a GI50 [10] of 3.04 µM, a TGI [10] of 12.9 µM and a GI50 [11] of 3.09 µM. For the same compound, the TGI [11] was greater than 100 µM, the GI50 [12] was 2.71 µM and the TGI [12] was 7.87 µM. For the same compound, the GI50 [13] was 2.91 µM, the TGI [13] was 10.9 µM and the GI50 [14] was 3.3 µM. For the same compound, the TGI [14] was 24 µM, the GI50 [15] was 3.24 µM and the TGI [15] was greater than 100 µM. The GI50 [16] was 2 µM, the TGI [16] was 5.67 µM and the GI50 [17] was 2.53 µM. It also gave a TGI [17] of 6.74 µM, a GI50 [18] of 3.23 µM and a TGI [18] of 20.8 µM. The GI50 [19] was 3.55 µM, the TGI [19] was greater than 100 µM and the GI50 [20] was 2.59 µM. For the same compound, the TGI [20] was 6.65 µM, the GI50 [21] was 2.3 µM and the TGI [21] was 5.95 µM. The GI50 [22] was 1.79 µM, the TGI [22] was 8.55 µM and the GI50 [23] was 2.84 µM. For the same compound, the TGI [23] was 8.7 µM, the GI50 [24] was 3.58 µM and the TGI [24] was greater than 100 µM. For the same compound, the GI50 [25] was 2.87 µM, the TGI [25] was 9.82 µM and the GI50 [26] was 1.83 µM. It also gave a TGI [26] of 3.37 µM, a GI50 [27] of 2.93 µM and a TGI [27] greater than 100 µM. For the same compound, the GI50 [28] was 3.53 µM, the TGI [28] was greater than 100 µM and the GI50 [29] was 2.52 µM. For the same compound, the TGI [29] was 7.83 µM, the GI50 [30] was 4.16 µM and the TGI [30] was greater than 100 µM. The GI50 [31] was 3 µM, the TGI [31] was 20.7 µM and the GI50 [32] was 2.2 µM. For the same compound, the TGI [32] was 5.24 µM, the GI50 [33] was 3.04 µM and the TGI [33] was 18.7 µM. The GI50 [34] was 3.29 µM, the TGI [34] was greater than 100 µM and the GI50 [35] was 4.3 µM. For the same compound, the TGI [35] was greater than 100 µM, the GI50 [36] was 3.46 µM and the TGI [36] was 14 µM. It also gave a GI50 [37] of 3.08 µM, a TGI [37] of 35.8 µM and a GI50 [38] of 3.53 µM. The TGI [38] was 52.1 µM, the GI50 [39] was 2.34 µM and the TGI [39] was 6.8 µM. It also gave a GI50 [40] of 2.31 µM, a TGI [40] of 4.99 µM and a GI50 [41] of 3.09 µM. The TGI [41] was greater than 100 µM, the GI50 [42] was 3.43 µM and the TGI [42] was greater than 100 µM. The GI50 [43] was 3.57 µM, the TGI [43] was 15.5 µM and the GI50 [44] was 3.22 µM. It also gave a TGI [44] greater than 100 µM, a GI50 [45] of 3.04 µM and a TGI [45] greater than 100 µM. It also gave a GI50 [46] of 3.3 µM, a TGI [46] of 16.1 µM and a GI50 [47] of 3.85 µM. It also gave a TGI [47] greater than 100 µM, a GI50 [48] of 1.94 µM and a TGI [48] of 5.66 µM. The GI50 [49] was 4.16 µM, the TGI [49] was 19.2 µM and the GI50 [50] was 2.99 µM. The TGI [50] was 9.66 µM, the GI50 [51] was 2.78 µM and the TGI [51] was 8.19 µM. It also gave a GI50 [52] of 3.16 µM, a TGI [52] of 18.1 µM and a GI50 [53] of 3.43 µM. The TGI [53] was 15.6 µM, the GI50 [54] was 2.89 µM and the TGI [54] was 9.64 µM. For the same compound, the GI50 [55] was 3.24 µM, the TGI [55] was 11.4 µM and the GI50 [56] was 2.94 µM. The TGI [56] was 22.1 µM, the GI50 [57] was 3.33 µM and the TGI [57] was 39.3 µM. The GI50 [58] was 2.95 µM and the TGI [58] was 10.5 µM.

With COc1ccccc1/C=C/C=N/NC1=NC2C(S1)N(C)C(=O)N2C (stereo not drawn) the GI50 [1] was 3.82 µM, the TGI [1] was greater than 100 µM and the GI50 [2] was 0.545 µM. For the same compound, the TGI [2] was 4.37 µM, the GI50 [3] was 7.76 µM and the TGI [3] was greater than 100 µM. It also gave a GI50 [4] of 3.9 µM, a TGI [4] of 43 µM and a GI50 [5] of 3.53 µM. The TGI [5] was 90.2 µM, the GI50 [6] was 4.03 µM and the TGI [6] was 43.6 µM. It also gave a GI50 [7] of 2.94 µM, a TGI [7] of 12.9 µM and a GI50 [8] of 9.21 µM. For the same compound, the TGI [8] was greater than 100 µM, the GI50 [9] was 3.39 µM and the TGI [9] was 32.3 µM. For the same compound, the GI50 [10] was 2.5 µM, the TGI [10] was 6.6 µM and the GI50 [11] was 5.28 µM. The TGI [11] was greater than 100 µM, the GI50 [12] was 9.27 µM and the TGI [12] was 75.8 µM. The GI50 [13] was 7.62 µM, the TGI [13] was greater than 100 µM and the GI50 [14] was 3.96 µM. The TGI [14] was greater than 100 µM, the GI50 [15] was 5.67 µM and the TGI [15] was 93.9 µM. The GI50 [16] was 3.33 µM, the TGI [16] was 13.2 µM and the GI50 [17] was 4.8 µM. For the same compound, the TGI [17] was greater than 100 µM, the GI50 [18] was 4.36 µM and the TGI [18] was 90.8 µM. It also gave a GI50 [19] of 10.5 µM, a TGI [19] of 33.2 µM and a GI50 [20] of 1.68 µM. For the same compound, the TGI [20] was 4.54 µM, the GI50 [21] was 4.73 µM and the TGI [21] was 77.7 µM. It also gave a GI50 [22] of 2.82 µM, a TGI [22] of 49.3 µM and a GI50 [23] of 3.68 µM. The TGI [23] was 38.2 µM, the GI50 [24] was 7.31 µM and the TGI [24] was greater than 100 µM. It also gave a GI50 [25] of 2.91 µM, a TGI [25] greater than 100 µM and a GI50 [26] of 3.61 µM. It also gave a TGI [26] of 13.8 µM, a GI50 [27] of 4.4 µM and a TGI [27] of 30.7 µM. For the same compound, the GI50 [28] was 6.78 µM, the TGI [28] was 38.5 µM and the GI50 [29] was 11.1 µM. It also gave a TGI [29] of 94.6 µM, a GI50 [30] of 5.74 µM and a TGI [30] greater than 100 µM. It also gave a GI50 [31] of 4.94 µM, a TGI [31] of 21.2 µM and a GI50 [32] of 4.8 µM. The TGI [32] was 20.3 µM, the GI50 [33] was 2.74 µM and the TGI [33] was 30.4 µM. The GI50 [34] was 4.42 µM, the TGI [34] was greater than 100 µM and the GI50 [35] was 8.3 µM. It also gave a TGI [35] greater than 100 µM, a GI50 [36] of 4.54 µM and a TGI [36] greater than 100 µM. It also gave a GI50 [37] of 6.93 µM, a TGI [37] of 66.4 µM and a GI50 [38] of 2.99 µM. It also gave a TGI [38] of 34.1 µM, a GI50 [39] of 14.3 µM and a TGI [39] of 72.5 µM. The GI50 [40] was 3.02 µM, the TGI [40] was 15.1 µM and the GI50 [41] was 4.19 µM. It also gave a TGI [41] greater than 100 µM, a GI50 [42] of 5.6 µM and a TGI [42] greater than 100 µM. The GI50 [43] was 5.77 µM, the TGI [43] was 70.3 µM and the GI50 [44] was 5.55 µM. For the same compound, the TGI [44] was greater than 100 µM, the GI50 [45] was 5.47 µM and the TGI [45] was 51.9 µM. For the same compound, the GI50 [46] was 3.92 µM, the TGI [46] was 17.7 µM and the GI50 [47] was 8.86 µM. For the same compound, the TGI [47] was greater than 100 µM, the GI50 [48] was 2.43 µM and the TGI [48] was 17 µM. For the same compound, the GI50 [49] was 2.59 µM, the TGI [49] was 8.6 µM and the GI50 [50] was 3.95 µM. It also gave a TGI [50] greater than 100 µM, a GI50 [51] of 8.11 µM and a TGI [51] greater than 100 µM. For the same compound, the GI50 [53] was 6.28 µM, the TGI [53] was greater than 100 µM and the GI50 [54] was 9.85 µM. The TGI [54] was greater than 100 µM, the GI50 [55] was 5.02 µM and the TGI [55] was greater than 100 µM. The GI50 [56] was 4.07 µM, the TGI [56] was greater than 100 µM and the GI50 [58] was 4.11 µM. The TGI [58] was greater than 100 µM.
